For 30 compounds, EC50 results are on record in patent US20250263408A1 (Uniquest Pty Ltd, priority 2022, published 2025).

Where only a bound is given, the exact number is not on record here.

Experiment [1] concerns Ba/F3-WT (wild type) cells. Kind of experiment: Ba/F3 Proliferation Assay, Ba/F3-WT (wild type) cells with mIL-3 (Resazurin). The note with it: Mus musculus, BaF3, 48 h, Ba/F3-WT cells +mIL-3, 48-hour incubation. In kind it is cell-based.
The target of a further experiment is T1, Ba/F3-Syk cells (Homo sapiens, UniProt P43405).
T1 construct: fused on or other part: Possible but unprinted fusion partner: TEL (ETV6), the usual partner for Ba/F3 lines transformed by Syk; Nothing on a partner is printed
Kind of experiment: Ba/F3 Proliferation Assay, Ba/F3-Syk cells (Resazurin). In kind it is cell-based. As to conditions: 48-hour incubation.

With `CC1(C)CNC[C@@H](COc2cc(-c3cnn4c3CCCC4)cc3ncccc23)O1` [Compound 11.2, 5-{[(2S)-6,6-dimethylmorpholin-2-yl]methoxy}-7-{4H,5H,6H,7H-pyrazolo[1,5-a]pyridin-3-yl}quinoline], the results for the EC50 (in experiment [1]; on Ba/F3-Syk cells) were 8460 nM and 637 nM, respectively.

For `CC(C)n1cc(-c2cc(O[C@H](C)[C@@H]3CNCC(C)(C)O3)c3cccnc3c2)cn1` [Compound 11.3, 5-[(1R)-1-[(2S)-6,6-dimethylmorpholin-2-yl]ethoxy]-7-[1-(propan-2-yl)-1H-pyrazol-4-yl]quinoline], the EC50 in experiment [1] amounted to 558 nM; on Ba/F3-Syk cells, 37.5 nM.

On to `C[C@@H](Oc1cc(-c2cnn(C)c2)cc2ncccc12)[C@@H]1CNCC(C)(C)O1` [Compound 11.4, 5-[(1R)-1-[(2S)-6,6-dimethylmorpholin-2-yl]ethoxy]-7-(1-methyl-1H-pyrazol-4-yl)quinoline], for which the EC50 is 740 nM in experiment [1] and 69.7 nM at Ba/F3-Syk cells.

For `C[C@@H](Oc1cc(-c2ccn(C)c2)cc2ncccc12)[C@@H]1CNCC(C)(C)O1` [Compound 11.5, 5-[(1R)-1-[(2S)-6,6-dimethylmorpholin-2-yl]ethoxy]-7-(1-methyl-1H-pyrrol-3-yl)quinoline], the EC50 in experiment [1] came out at 1850 nM; on Ba/F3-Syk cells, 90.6 nM.

In the case of `Cn1ccc(-c2cc(OC[C@@H]3CNCC4(CCC4)O3)c3cccnc3c2)c1` [Compound 11.6, 7-(1-methyl-1H-pyrrol-3-yl)-5-{[(6S)-5-oxa-8-azaspiro[3.5]nonan-6-yl]methoxy}quinoline], the figures for the EC50 (in experiment [1]; on Ba/F3-Syk cells) were 1790 nM and 33.4 nM, respectively.

In the case of `Cn1cc(-c2cc(OC[C@@H]3CNCC4(CCC4)O3)c3cccnc3c2)cn1` [Compound 11.7, 7-(1-methyl-1H-pyrazol-4-yl)-5-{[(6S)-5-oxa-8-azaspiro[3.5]nonan-6-yl]methoxy}quinoline], the EC50 in experiment [1] was 1070 nM; at Ba/F3-Syk cells, 46.3 nM.

In the case of `CC(C)(C)n1cc(-c2cc(OC[C@@H]3CNCC4(CCC4)O3)c3cccnc3c2)cn1` [Compound 11.9, 7-(1-tert-butyl-1H-pyrazol-4-yl)-5-{[(6S)-5-oxa-8-azaspiro[3.5]nonan-6-yl]methoxy}quinoline], the EC50 in experiment [1] was found to be 1580 nM; at Ba/F3-Syk cells, 10 nM.

Consider `C[C@@H](Oc1cc(-c2ccn(C)c2)cc2ncccc12)[C@@H]1CNCCO1` [Compound 11.10, 7-(1-methyl-1H-pyrrol-3-yl)-5-[(1R)-1-[(2S)-morpholin-2-yl]ethoxy]quinoline], for which the EC50 turned out to be 1700 nM in experiment [1] and 121 nM at Ba/F3-Syk cells.

For `Cn1cc(-c2cc(OC[C@@H]3CNCC4(CC4)O3)c3nccnc3c2)cn1` [Compound 12.1, 7-(1-methyl-1H-pyrazol-4-yl)-5-{[(5S)-4-oxa-7-azaspiro[2.5]octan-5-yl]methoxy}quinoxaline], the EC50 was over 10000 nM in experiment [1] and 214 nM on Ba/F3-Syk cells.

Take `CC(C)n1cc(-c2cc(OC[C@@H]3CNCC4(CC4)O3)c3nccnc3c2)cn1` [Compound 12.2, 5-{[(5S)-4-oxa-7-azaspiro[2.5]octan-5-yl]methoxy}-7-[1-(propan-2-yl)-1H-pyrazol-4-yl]quinoxaline]: the EC50 in experiment [1] is 1620 nM; at Ba/F3-Syk cells it was 29.1 nM.

For `CC(C)(C)n1cc(-c2cc(OC[C@@H]3CNCC4(CC4)O3)c3nccnc3c2)cn1` [Compound 12.3, 7-(1-tert-butyl-1H-pyrazol-4-yl)-5-{[(5S)-4-oxa-7-azaspiro[2.5]octan-5-yl]methoxy}quinoxaline], the EC50 was 1300 nM in experiment [1] and 27.3 nM at Ba/F3-Syk cells.

On to `Cn1ccc(-c2cc(OC[C@@H]3CNCC4(CC4)O3)c3nccnc3c2)c1` [Compound 12.4, 7-(1-methyl-1H-pyrrol-3-yl)-5-{[(5S)-4-oxa-7-azaspiro[2.5]octan-5-yl]methoxy}quinoxaline], for which the results for the EC50 (in experiment [1]; on Ba/F3-Syk cells) were 3070 nM and 27.5 nM, respectively.

Turning to `C[C@@H]1CNC[C@@H](COc2cc(-c3cnn(C)c3)cc3nccnc23)O1` [Compound 12.5, 7-(1-methyl-1H-pyrazol-4-yl)-5-{[(2S,6R)-6-methylmorpholin-2-yl]methoxy}quinoxaline], the EC50 in experiment [1] came to 1300 nM; at Ba/F3-Syk cells, 50.9 nM.

`CC(C)n1cc(-c2cc(OC[C@@H]3CNC[C@@H](C)O3)c3nccnc3c2)cn1` [Compound 12.6, 5-{[(2S,6R)-6-methylmorpholin-2-yl]methoxy}-7-[1-(propan-2-yl)-1H-pyrazol-4-yl]quinoxaline]: the EC50 came out at 478 nM in experiment [1] and 9.9 nM at Ba/F3-Syk cells.

For `C[C@@H]1CNC[C@@H](COc2cc(-c3cnn(C(C)(C)C)c3)cc3nccnc23)O1` [Compound 12.7, 7-(1-tert-butyl-1H-pyrazol-4-yl)-5-{[(2S,6R)-6-methylmorpholin-2-yl]methoxy}quinoxaline], the results for the EC50 (in experiment [1]; at Ba/F3-Syk cells) were 989 nM and 9.2 nM, respectively.

As to `c1cnc2cc(-c3ccns3)nc(OC[C@@H]3CNCCO3)c2c1` [Compound 13.1, 5-{[(2S)-morpholin-2-yl]methoxy}-7-(1,2-thiazol-5-yl)-1,6-naphthyridine], the figures for the EC50 (in experiment [1]; on Ba/F3-Syk cells) were 6360 nM and 586 nM, respectively.

Take `Cn1ccc(-c2cc3ncccc3c(O[C@@H]([C@@H]3CNCCO3)C(F)(F)F)n2)c1` [Compound 13.3, 7-(1-methyl-1H-pyrrol-3-yl)-5-[(1S)-2,2,2-trifluoro-1-[(2S)-morpholin-2-yl]ethoxy]-1,6-naphthyridine]: the EC50 in experiment [1] is over 10000 nM; at Ba/F3-Syk cells it was 1210 nM.

On to `CC1(C)CCO[C@H](COc2nc(-c3cnn(C(C)(C)C)c3)cc3ncccc23)CN1` [Compound 13.4, 7-(1-tert-butyl-1H-pyrazol-4-yl)-5-{[(2S)-5,5-dimethyl-1,4-oxazepan-2-yl]methoxy}-1,6-naphthyridine], for which the EC50 in experiment [1] stood at 5750 nM; on Ba/F3-Syk cells, 214 nM.

As for `C[C@@H]1NCCO[C@@H]1COc1nc(-c2ccn(C)c2)cc2ncccc12` [Compound 13.5, 7-(1-methyl-1H-pyrrol-3-yl)-5-{[(2S,3S)-3-methylmorpholin-2-yl]methoxy}-1,6-naphthyridine], the EC50 stood at 6310 nM in experiment [1] and 51.7 nM on Ba/F3-Syk cells.

With `C[C@@H]1NCCO[C@@H]1COc1nc(-c2cnn(C(C)(C)C)c2)cc2ncccc12` [Compound 13.6, 7-(1-tert-butyl-1H-pyrazol-4-yl)-5-{[(2S,3S)-3-methylmorpholin-2-yl]methoxy}-1,6-naphthyridine], the EC50 in experiment [1] was determined as 5560 nM; on Ba/F3-Syk cells, 36.2 nM.

Take `C[C@H](Oc1cc(-c2cnn(C(C)(C)C)c2)cc2ncccc12)[C@@H]1CNCCO1` [Compound 14.1, 7-(1-tert-butyl-1H-pyrazol-4-yl)-5-[(1S)-1-[(2S)-morpholin-2-yl]ethoxy]quinoline]: the EC50 in experiment [1] is over 10000 nM; on Ba/F3-Syk cells, 1340 nM.

With `C[C@@H](Oc1cc(-c2cnn(C(C)(C)C)c2)cc2ncccc12)[C@@H]1CNCCO1` [Compound 14.2, 7-(1-tert-butyl-1H-pyrazol-4-yl)-5-[(1R)-1-[(2S)-morpholin-2-yl]ethoxy]quinoline], the EC50 in experiment [1] was determined as 1880 nM; on Ba/F3-Syk cells, 81.8 nM.

On to `FC(F)c1cc(-c2cc(OC[C@@H]3CNCCO3)c3cccnc3c2)cs1` [Compound 14.3, 7-[5-(difluoromethyl)thiophen-3-yl]-5-{[(2S)-morpholin-2-yl]methoxy}quinoline], for which the EC50 in experiment [1] amounted to 1920 nM; at Ba/F3-Syk cells it was 176 nM.

For `FC(F)c1csc(-c2cc(OC[C@@H]3CNCCO3)c3cccnc3c2)c1` [Compound 14.4, 7-[4-(difluoromethyl)thiophen-2-yl]-5-{[(2S)-morpholin-2-yl]methoxy}quinoline], the EC50 in experiment [1] was 1900 nM; at Ba/F3-Syk cells, 196 nM.

`CC(C)(C)c1ccc(-c2cc(OC[C@@H]3CNCCO3)c3cccnc3c2)s1` [Compound 14.5, 7-(5-tert-butylthiophen-2-yl)-5-{[(2S)-morpholin-2-yl]methoxy}quinoline]: the EC50 in experiment [1] worked out at 1200 nM; on Ba/F3-Syk cells, 428 nM.

For the compound `Cc1ccnc2cc(-c3cnn(C(C)(C)C)c3)cc(OC[C@@H]3CNCC(C)(C)O3)c12` [Compound 14.9, 7-(1-tert-butyl-1H-pyrazol-4-yl)-5-{[(2S)-6,6-dimethylmorpholin-2-yl]methoxy}-4-methylquinoline], the results for the EC50 (in experiment [1]; on Ba/F3-Syk cells) were 1220 nM and 5.9 nM, respectively.

Turning to `Cc1cnc2cc(-c3cnn(C(C)C)c3)nc(OC[C@@H]3CNCC(C)(C)O3)c2c1` [Compound 14.10, 5-{[(2S)-6,6-dimethylmorpholin-2-yl]methoxy}-3-methyl-7-[1-(propan-2-yl)-1H-pyrazol-4-yl]-1,6-naphthyridine], the EC50 in experiment [1] was determined as 1070 nM; at Ba/F3-Syk cells it was 44.9 nM.

In the case of `COCCn1ccc(-c2cc(OC[C@@H]3CNCC(C)(C)O3)c3c(C)ccnc3c2)c1` [Compound 14.11, 5-{[(2S)-6,6-dimethylmorpholin-2-yl]methoxy}-7-[1-(2-methoxyethyl)-1H-pyrrol-3-yl]-4-methylquinoline], the results for the EC50 (in experiment [1]; at Ba/F3-Syk cells) were 803 nM and 6.1 nM, respectively.

As to `Cc1ccnc2cc(-c3ccn(C4COC4)c3)cc(OC[C@@H]3CNCC(C)(C)O3)c12` [Compound 14.12, 5-{[(2S)-6,6-dimethylmorpholin-2-yl]methoxy}-4-methyl-7-[1-(oxetan-3-yl)-1H-pyrrol-3-yl]quinoline], the EC50 in experiment [1] came to 867 nM; on Ba/F3-Syk cells, 5.5 nM.

For the compound `CC1(C)CNC[C@@H](COc2nc(-c3cnn(C(C)(C)C)c3)cc3nccc(C(F)(F)F)c23)O1` [Compound 14.13, 7-(1-tert-butyl-1H-pyrazol-4-yl)-5-{[(2S)-6,6-dimethylmorpholin-2-yl]methoxy}-4-(trifluoromethyl)-1,6-naphthyridine], the values for the EC50 (in experiment [1]; at Ba/F3-Syk cells) were 865 nM and 20 nM, respectively.
